These are literature values, as cited in patent US20110212944A1, “2-OXO-1-PYRROLIDINE DERIVATIVES” (priority 2008, published 2011).

With `CCC[C@@H]1CC(=O)N([C@@H](CC)C(N)=O)C1` [brivaracetam, 2(S)-[2-oxo-4(R)-propylpyrrolidin-1-yl]butyramide], the “time after drug administration within which adverse events subsided” value (after drug administration) is ≤ 24 h. Besides, under “primarily CNS-related events (dizziness, somnolence, headache etc.)”, the “severity of treatment emergent adverse events” value is recorded as “mild to moderate”.
